Assay results taken from US20100010053A1, “COMPOUNDS” (priority 2008, published 2010).

Biological target: T1, human S1P1 receptor (EDG1) (Homo sapiens, UniProt P21453)
T1 construct: TEV protease site + Gal4-VP16 transcription factor (only in the Tango assay cells; not described for the GTPγS membranes); expressed in transfected cells; host or cells: rat hepatoma cells (membranes, GTPγS assay) or Tango EDG1-bla U2OS cells (Tango assay)
Experiment: S1P1 GTPγS assay or S1P1 Tango assay (at least one of the above assays)
Type: cell-based
Conditions: read-out: pEC50 in at least one of the above assays (converted)
Description: For membrane preparations all steps were performed at 4° C. Rat hepatoma cells stably expressing the human S1P1 receptor or Rat Basophilic Leukaemia cells (RBL) stably expressing human S1P3 receptor were grown to 80% confluency before being harvested into 10 ml Phospho-Buffered Saline (PBS) and centrifuged at 1200 rpm for 5 minutes. After removal of the supernatant, the pellet was re-suspended and cells were homogenised within a glass Waring blender for 2 bursts of 15 secs in 200 mls of buffer (50 mM HEPES, 1 mM leupeptin, 25 μg/ml bacitracin, 1 mM EDTA, 1 mM PMSF, 2 μM pepstatin A). The blender was plunged into ice for 5 mins after the first burst and 10-40 mins after the final burst to allow foam to dissipate. The material was then spun at 500 g for 20 mins and the supernatant spun for 36 mins at 48,000 g. The pellet was resuspended in the same buffer as above but without PMSF and pepstatin A. The material was then forced through a 0.6 mm needle, made up to the required volume, (usually ×4 the volume of the original cell pellet), aliquoted and stored frozen at −80° C. S1P1 GTPγS assay Human S1P1 rat hepatoma membranes (1.5 μg/well) were adhered to a wheatgerm agglutinin (WGA)-coated scintillation proximity assay (SPA) beads (0.125 mg/well) in assay buffer (HEPES 20 mM, MgCl2 10 mM, NaCl 100 mM and pH adjusted to 7.4 using KOH 5M, GDP 10 μM FAC (final assay concentration) and saponin 90 μg/ml FAC was also added).
After 30 minutes pre-coupling on ice the bead and membrane suspension was dispensed into a white Greiner polypropylene LV384-well plate (5 μl/well), containing 0.1 μl of the compound. 5 μl/well [^35S]-GTPγS (0.5 nM final radioligand conc) made up in assay buffer was then added to agonist plates. The final assay cocktail (10.1 μl) was then centrifuged at 1000 rpm for 5 minutes then read immediately on a Viewlux reader.
All test compounds were dissolved in DMSO at a concentration of 10 mM and were prepared in 100% DMSO using a 1 in 4 dilution step to provide 11 point dose response curves. The dilutions were transferred to the assay plates ensuring that the DMSO concentration was constant across the plate for all assays.
All data was normalized to the mean of 16 high and 16 low control wells on each plate. A four parameter curve fit was then applied.
Recombinant EDG1-bla/U2OS cells (contain the human Endothelial Differentiation Gene 1 (EDG1) linked to a TEV protease site and a Gal4-VP16 transcription factor stably integrated into the Tango GPCR-bla U2OS parental cell line) were suspended in assay medium (Invitrogen Freestyle Expression Medium) at a density of 312, 500 cells/ml. Add 100 μl/well of the assay medium to the cell-free control wells (column 12) and 100 μl/well of the cell suspension to the test compound wells (row 2-8, column 1-10), the unstimulated control wells (DMSO) (column 11), and stimulated control wells (S1P) (row 1, column 1-10) in a Corning black-well, clear bottom 96-well plate. Cells were incubated at 37° C., 5% CO2 for 44-48 h. Add 25 μl of 5× stock solution of test compounds in assay medium with 0.5% DMSO to the test compound wells, 25 μl of 5× stock solution of agonist (S1P) in assay medium with 0.5% DMSO to the stimulated compound wells, and 25 μl of 5× stock solution of 0.5% DMSO in assay medium to the unstimulated control and cell-free control wells.
After incubation at 37° C., 5% CO2 for 5 h, 25 μl of 6× substrate mixture (6 μl Solution A (1 mg LiveBLAzer™-FRET B/G substrate (CCF4-AM) in 912 μl DMSO) plus 60 μl Solution B plus 934 μl Solution C) was added to each well and incubate at room temperature for 2 h in dark. The plate was finally read on EnVision for two emission channels (460 nm and 530 nm).
All test compounds were dissolved in DMSO at a concentration of 10 mM and were prepared in 100% DMSO using a 1 in 5 dilution step to provide 10 point dose response curves. […]

T1 sequence (P21453 whole entry, the tested form may be a part): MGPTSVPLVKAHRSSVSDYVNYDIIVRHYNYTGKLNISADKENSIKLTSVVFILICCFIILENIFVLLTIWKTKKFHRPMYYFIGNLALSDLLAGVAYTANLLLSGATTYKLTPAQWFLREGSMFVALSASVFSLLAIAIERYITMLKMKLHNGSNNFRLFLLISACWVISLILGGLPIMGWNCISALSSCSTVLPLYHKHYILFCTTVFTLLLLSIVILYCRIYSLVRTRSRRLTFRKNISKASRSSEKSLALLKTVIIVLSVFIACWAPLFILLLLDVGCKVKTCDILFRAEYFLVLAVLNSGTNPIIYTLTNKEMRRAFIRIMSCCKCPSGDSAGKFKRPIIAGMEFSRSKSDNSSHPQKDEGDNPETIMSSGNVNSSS

Structure (SMILES) | EC50 [µM]
CC(C)Oc1ccc(-c2nc(-c3ccc4[nH]c(C(=O)O)cc4c3)no2)cc1Cl [Example 8, Sodium 5-(5-{3-chloro-4-[(1-methylethyl)oxy]phenyl}-1,2,4-oxadiazol-3-yl)-1H-indole-2-carboxylate] | ≥ 1
CC(C)Oc1ccc(-c2nc(-c3ccc4[nH]c(CCC(=O)O)cc4c3)no2)cc1C#N [Example 89, 3-[5-(5-{3-cyano-4-[(1-methylethyl)oxy]phenyl}-1,2,4-oxadiazol-3-yl)-1H-indol-2-yl]propanoic acid] | < 0.01
CC(C)Oc1ncc(-c2nc(-c3cc4[nH]cc(CCC(=O)O)c4cc3F)no2)cc1Cl [Example 111, 3-[6-(5-{5-Chloro-6-[(1-methylethyl)oxy]-3-pyridinyl}-1,2,4-oxadiazol-3-yl)-5-fluoro-1H-indol-3-yl]propanoic acid] | < 0.01
CC(C)Oc1ccc(-c2nc(-c3cccc4c(CCCOCC(=O)O)cn(C)c34)no2)cc1Cl [Example 80, ({3-[7-(5-{3-chloro-4-[(1-methylethyl)oxy]phenyl}-1,2,4-oxadiazol-3-yl)-1-methyl-1H-indol-3-yl]propyl}oxy)acetic acid] | < 0.01
CC(C)Oc1ccc(-c2nc(-c3cccc4c(CCC(=O)O)c[nH]c34)no2)cc1Cl [Example 1, 3-[7-(5-{3-chloro-4-[(1-methylethyl)oxy]phenyl}-1,2,4-oxadiazol-3-yl)-1H-indol-3-yl]propanoic acid] | < 0.01
CC(C)Oc1ccc(-c2nc(-c3c(F)ccc4c(CCC(=O)O)cn(C)c34)no2)cc1C#N [Example 106, 3-[7-(5-{3-Cyano-4-[(1-methylethyl)oxy]phenyl}-1,2,4-oxadiazol-3-yl)-6-fluoro-1-methyl-1H-indol-3-yl]propanoic acid] | < 0.01
CC(C)Oc1ccc(-c2nc(-c3c(F)ccc4c(CCC(=O)O)c[nH]c34)no2)cc1C#N [Example 105, 3-[7-(5-{3-Cyano-4-[(1-methylethyl)oxy]phenyl}-1,2,4-oxadiazol-3-yl)-6-fluoro-1H-indol-3-yl]propanoic acid] | < 0.001
CC(C)Oc1ccc(-c2nc(-c3cccc4c(C(=O)N(C)CCC(=O)O)c[nH]c34)no2)cc1Cl [Example 75, N-{[7-(5-{3-chloro-4-[(1-methylethyl)oxy]phenyl}-1,2,4-oxadiazol-3-yl)-1H-indol-3-yl]carbonyl}-N-methyl-β-alanine] | < 0.01
CC(C)Cn1cc(CCC(=O)O)c2cccc(-c3noc(-c4ccc(OC(C)C)c(Cl)c4)n3)c21 [Example 30, 3-[7-(5-{3-chloro-4-[(1-methylethyl)oxy]phenyl}-1,2,4-oxadiazol-3-yl)-1-(2-methylpropyl)-1H-indol-3-yl]propanoic acid] | ≥ 1
CC(C)Oc1ccc(-c2nc(-c3cccc4c(CNCCC(=O)O)c[nH]c34)no2)cc1Cl [Example 46, N-{[7-(5-{3-chloro-4-[(1-methylethyl)oxy]phenyl}-1,2,4-oxadiazol-3-yl)-1H-indol-3-yl]methyl}-β-alanine] | < 0.01
CC(C)Oc1ccc(-c2nc(-c3ccc(F)c4c(CCC(=O)O)c[nH]c34)no2)cc1Cl [Example 19, 3-[7-(5-{3-Chloro-4-[(1-methylethyl)oxy]phenyl}-1,2,4-oxadiazol-3-yl)-4-fluoro-1H-indol-3-yl]propanoic acid] | < 0.01
CC(C)Oc1ccc(-c2nc(-c3cccc4c(CCC(=O)O)c[nH]c34)no2)cc1C#N [Example 3, 3-[7-(5-{3-Cyano-4-[(1-methylethyl)oxy]phenyl}-1,2,4-oxadiazol-3-yl)-1H-indol-3-yl]propanoic acid] | < 0.001
CC(C)Oc1ncc(-c2nc(-c3cc(F)cc4c(CCC(=O)O)c[nH]c34)no2)cc1Cl [Example 101, 3-[7-(5-{5-Chloro-6-[(1-methylethyl)oxy]-3-pyridinyl}-1,2,4-oxadiazol-3-yl)-5-fluoro-1H-indol-3-yl]propanoic acid] | < 0.01
CC(C)Oc1ccc(-c2nc(-c3ccc4c(CCC(=O)O)c[nH]c4c3)no2)cc1C#N [Example 7, 3-[6-(5-{3-Cyano-4-[(1-methylethyl)oxy]phenyl}-1,2,4-oxadiazol-3-yl)-1H-indol-3-yl]propanoic acid] | < 0.001
CC(C)Oc1ccc(-c2nc(-c3cccc4c(CN[C@H](C)C(=O)O)c[nH]c34)no2)cc1Cl [Example 49, N-{[7-(5-{3-chloro-4-[(1-methylethyl)oxy]phenyl}-1,2,4-oxadiazol-3-yl)-1H-indol-3-yl]methyl}-D-alanine] | < 0.001
CC(C)Oc1ccc(-c2nc(-c3cccc4c(CCC(=O)O)cn(C)c34)no2)cc1Cl [Example 2, 3-[7-(5-{3-Chloro-4-[(1-methylethyl)oxy]phenyl}-1,2,4-oxadiazol-3-yl)-1-methyl-1H-indol-3-yl]propanoic acid] | < 0.01
CC(C)Oc1ccc(-c2nc(-c3cccc4c(C(=O)NCCC(=O)O)cn(C)c34)no2)cc1Cl [Example 76, N-{[7-(5-{3-chloro-4-[(1-methylethyl)oxy]phenyl}-1,2,4-oxadiazol-3-yl)-1-methyl-1H-indol-3-yl]carbonyl}-β-alanine] | < 0.001
COc1ccc(-c2nc(-c3cccc4c(CCC(=O)O)cn(C)c34)no2)cc1OC [Example 44, 3-(7-{5-[3,4-bis(methyloxy)phenyl]-1,2,4-oxadiazol-3-yl}-1-methyl-1H-indol-3-yl)propanoic acid] | ≥ 1
CC(C)Oc1ccc(-c2nc(-c3cccc4c(CN5CCC(C(=O)O)CC5)c[nH]c34)no2)cc1Cl [Example 48, 1-{[7-(5-{3-chloro-4-[(1-methylethyl)oxy]phenyl}-1,2,4-oxadiazol-3-yl)-1H-indol-3-yl]methyl}-4-piperidinecarboxylic acid] | < 0.01
CC(C)Oc1ccc(-c2nc(-c3cccc4c(C(=O)NCCC(=O)O)c[nH]c34)no2)cc1Cl [Example 73, N-{[7-(5-{3-chloro-4-[(1-methylethyl)oxy]phenyl}-1,2,4-oxadiazol-3-yl)-1H-indol-3-yl]carbonyl}-β-alanine] | < 0.001
CC(C)Oc1ccc(-c2nc(-c3ccc(F)c4c(CCC(=O)O)c[nH]c34)no2)cc1C#N [Example 21, 3-[7-(5-{3-Cyano-4-[(1-methylethyl)oxy]phenyl}-1,2,4-oxadiazol-3-yl)-4-fluoro-1H-indol-3-yl]propanoic acid] | < 0.01
CC(C)Oc1ccc(-c2nc(-c3cccc4c(C[C@@H](C)C(=O)O)cn(C)c34)no2)cc1Cl [Example 36, (2R)-3-[7-(5-{3-chloro-4-[(1-methylethyl)oxy]phenyl}-1,2,4-oxadiazol-3-yl)-1-methyl-1H-indol-3-yl]-2-methylpropanoic acid] | < 0.01
CC(C)Oc1ccc(-c2nc(-c3cccc4c(CNCCC(=O)O)cn(C)c34)no2)cc1Cl [Example 58, N-{[7-(5-{3-chloro-4-[(1-methylethyl)oxy]phenyl}-1,2,4-oxadiazol-3-yl)-1-methyl-1H-indol-3-yl]methyl}-β-alanine] | < 0.001
CC(C)Oc1ccc(-c2nc(-c3c(F)ccc4c(CCC(=O)O)c[nH]c34)no2)cc1Cl [Example 103, 3-[7-(5-{3-Chloro-4-[(1-methylethyl)oxy]phenyl}-1,2,4-oxadiazol-3-yl)-6-fluoro-1H-indol-3-yl]propanoic acid] | < 0.001
